Experimental data published in patent US11471463B2, “Enhancers of cellular cannibalism for use to sensitize tumors to radiation therapy” (Institut Gustave-Roussy, priority 2017, dated 2022).
Entries after “also recorded” stand apart in the source; their conditions may differ. Counter-ions that a name gives are not always drawn.

Tests used:
[1] = system: HCT116 cells; test: Screening for enhancers of IR-mediated cellular cannibalism (imaging flow cytometry, confocal microscopy validation); format: cell-based, human; conditions: 8 Gray, 10 μM compound, 24 hours of culture
Description: FIG. 4 Identification of cannibalism modulators triggered by ionizing radiation. Compounds from the Prestwick (A) and CEA (F) libraries were tested for their capacities to induce cellular cannibalism after ionizing radiation. Cannibal cells were detected after homotypic cultures of 8 gray γ-irradiation HCT116 cells in the presence or absence of […] of the Prestwick (A) and CEA […] library compounds. Each dot represents one compound. Representative images are shown in (B, G). (C, H) HCT116 cells were treated with the indicated drugs. After 24 h of treatment, cell death was monitored by staining with 3,3 dihexyloxacarbocyanine iodide (DiOC6(3)) and PI, and the percentage of dying (DiOC6(3)^low PI^−, open bars) and dead (DiOC6(3)^low PI^+, closed bars) cells was determined by cytofluorometry. Validation of the cannibalism inducers by fluorescent microscopy. Representative images (D, I) and quantification (E, J) are shown. Results are means±s.e.m. of triplicate determinations.
Then, the screening of a library of chemical compounds was developed in order to identify compounds able to induce IR-mediated cellular cannibalism. Thus, HCT116 cells that have been treated with a radiation dose of 8 Gray were stained either with orange CMTMR cell tracker or green CMFDA cell tracker and cultivated in presence of 10 μM of chemical compounds. After 24 hours of culture, cells have been stained with nuclear dye (5 μg/ml of Hoechst 33342 during 1 h at 37° C.) and analyzed using the FlowSight® Imaging Flow Cytometer for cellular cannibalism. Each of these compounds were classified according to their Z-score^47 and identified respectively 13 and 11 candidate compounds (FIGS. 4A, 4B, 4F and 4G). Then, the identified compounds were validated by combining flow cytometry approaches (in order to eliminate cytotoxic compounds by simultaneously monitoring the depolarization of the internal mitochondrial membrane and the plasma membrane permeability of the treated cells) with confocal microscopy approaches (to confirm the modulation of IR-induced cellular cannibalism by candidate compounds) (FIGS. 4C-E and 4H-J). […] Finally, 16 chemical compounds that are able to enhance the capacity of IR to trigger cellular cannibalism were identified (FIGS. 4E and 4J, Tables 1&2).

[2] = system: CT26 cells; test: Anti-tumor vaccination assay, treated CT26 cells inoculated into BALB/c mice and rechallenge; format: in vivo, mouse; conditions: for Protective response after injection of cancer cells, compound alone: CT26 cells treated with 10 μM compound alone (no IR); for Frequency of mice showing a protective response: 8 Gy in presence of 10 μM compound for 24 hours
Description: FIG. 5. Identification of cannibalism modulators as immunogenic cell death inducers. MCA205 (A) or CT26 (E, I, M, Q) cells were treated with the indicated drugs. After 24 h of coculture with the indicated treatment, cell death was monitored by staining DiOC6(3) and PI, and the percentage of dying (DiOC6(3)^low PI^−, open bars) and dead (DiOC6(3)^low PI^+, closed bars) cells was determined by cytofluorometry. (B-D) MCA205 cells or (F-H, J-L, N-P, R-T) CT26 cells cocultured after x irradiation with the indicated compounds were inoculated subcutaneously into the right flank of […] or BALB/c mice, respectively. Seven days later, the mice were rechallenged with live cells injected into the opposite flank, and tumor growth was monitored (five mice per group).
FIG. 6. Tumor vaccination experiments. CT26 cells were treated for 24 hours with 10 μM VP331 (A, F, K), 10 μM Minaprine (B, G, L), 10 μM Lopa87 (C, H, M), 10 μM SG6163F (D, I, N), 10 μM Azaguanine-8 (8-aza) (E, J, O) alone or combined with 8 Gy ionizing radiation and inoculated (s.c.) into immunocompetent BALB/c mice, which were rechallenged at the opposite flank 7 days later with the same cancer cells. The percentage of tumor-free mice was evaluated three times a week for the following 38 days. Percentage of total tumor free mice (A-E), tumor free-mice at the first injection site (F to J, P) or at the second injection site (K to O, Q) are shown. (*P<0.05, **P<0.01, ***P<0.001, two-way ANOVA).
Considering that immunogenic cell death (ICD) inducers were identified (such as Digoxin, Digitoxin, Lanatoside C or Doxorubicin hydrochloride)^3, 4, 48-51) as IRCCE, the ability of these compounds to induce an antitumor immunity after radiotherapy was evaluated. First, a preclinical approaches was developed to study the immunological effects of IRCCE on two mouse models of carcinoma (colon CT26 carcinoma and fibrosarcoma MCA205). Initially, the ability of the combination of IRCCE+IR to trigger a specific anti-tumor immune response was appreciated using immunocompetent mice through anti-tumor vaccination assays. According to previously published studies^52, the injection of cancer cells succumbing to an immunogenic cell death (ICD) into immunocompetent mice must elicit a protective immune response that is specific for tumor antigens. Thus, 3×10^5 MCA205 cells were first treated with 10 μM of SG6163F for 24 hours. Then, treated cells were inoculated subcutaneously in 200 μl PBS into the lower flank of 8-week-old female C57BL/6 mice. One week later, 3×10^4 untreated control cells were inoculated into the contralateral flank of mice. Tumors were evaluated weekly using a common caliper. Animals bearing tumors that exceeded 20-25% body mass were euthanatized. […] Then, 3×10^6 CT26 cells were irradiated with 8 Gy in presence of 10 μM of SG6163F (FIGS. 5E and 5F), VP331 (FIGS. 5I and 5J), Minaprine dihydrochloride (FIGS. 5M and 5N) or LOPA87 (FIGS. 5Q and 5R) for 24 hours. Then, cells were inoculated as previously described subcutaneously in 200 μl PBS into the lower flank of 8-week-old female BALB/c mice. One week later, 5×10^5 untreated control cells were inoculated into the contralateral flank of mice and tumors were evaluated weekly using a common caliper. As previously mentioned, animals bearing tumors that exceeded 20-25% body mass were euthanatized. The percentage of dying cells in each condition was evaluated by determining with DiOC(6)3/IP staining (FIGS. 5E, 5I, 5M and 5Q). Finally, the ability of these compounds to repress the growth of cancer cells that have been injected 7 days after injection of irradiated and treated cancer cells was appreciated.
A second anti-tumor vaccination assay was done on CT26 mouse models of carcinoma as previously described. […]

[3] = first assay: CT26 cells, rechallenge one week later
[4] = second assay: CT26 cells, rechallenge 7 days later

Molecule: Cc1cc(-c2ccccc2)nnc1NCCN1CCOCC1.Cl.Cl [Minaprine dihydrochloride]
- Enhancement of IR-mediated cellular cannibalism (IRCCE) [1]: efficient cellular cannibalism enhancer
- Protective response after injection of cancer cells, compound alone ([2]; dihydrochloride): induce an increase of protective response; also recorded: intrinsic protective effects against tumor development
- Frequency of mice showing a protective response [2, 3]: significant increase in the frequency of mice showing a protective response
- Frequency of mice showing a protective response [2, 4]: Significant increases in the frequency of mice showing a protective response

Molecule: COC(=O)Nc1nc2ccc(Sc3ccccc3)cc2[nH]1 [Fenbendazol]
- Enhancement of IR-mediated cellular cannibalism (IRCCE) [1]: no effect

Molecule: CC(C(=O)O)c1ccc(-c2ccccc2)c(F)c1 (stereo not drawn) [Flurbiprofen]
- Enhancement of IR-mediated cellular cannibalism (IRCCE) [1]: efficient cellular cannibalism enhancer

Molecule: CN(C)c1ccc(-c2cc(=O)[nH]c(-c3ccccc3)n2)cc1 [LOPA87]
- Enhancement of IR-mediated cellular cannibalism (IRCCE) [1]: efficient cellular cannibalism enhancer
- Frequency of mice showing a protective response [2, 3]: significant increase in the frequency of mice showing a protective response
- Frequency of mice showing a protective response [2, 4]: Significant increases in the frequency of mice showing a protective response

Molecule: COc1cc(O)ccc1/C=N/c1ccccc1C(=O)Nc1ccccc1 [RN-1-026]
- Enhancement of IR-mediated cellular cannibalism (IRCCE) [1]: efficient cellular cannibalism enhancer

Molecule: Myricetin
- Enhancement of IR-mediated cellular cannibalism (IRCCE) [1]: efficient cellular cannibalism enhancer

Molecule: Nc1nc2[nH]nnc2c(=O)[nH]1 [8-Azaguanine]
- Enhancement of IR-mediated cellular cannibalism (IRCCE) [1]: efficient cellular cannibalism enhancer
- Protective response after injection of cancer cells, compound alone [2]: induce an increase of protective response
- Frequency of mice showing a protective response [2, 4]: Significant increases in the frequency of mice showing a protective response

Molecule: CC(=O)O[C@H]1C[C@H](O[C@H]2[C@@H](O)C[C@H](O[C@H]3[C@@H](O)C[C@H](O[C@H]4CC[C@@]5(C)[C@H](CC[C@@H]6[C@@H]5C[C@@H](O)[C@]5(C)[C@@H](C7=CC(=O)OC7)CC[C@]65O)C4)O[C@@H]3C)O[C@@H]2C)O[C@H](C)[C@H]1O[C@@H]1O[C@H](CO)[C@@H](O)[C@H](O)[C@H]1O [Lanatoside, Lanatoside C]
- Enhancement of IR-mediated cellular cannibalism (IRCCE) [1]: efficient cellular cannibalism enhancer
- Enhancement of IR-mediated cellular cannibalism (IRCCE) ([1]; listed as Lanatoside C): IRCCE

Molecule: C[C@H]1O[C@@H](O[C@H]2[C@@H](O)C[C@H](O[C@H]3[C@@H](O)C[C@H](O[C@H]4CC[C@@]5(C)[C@H](CC[C@@H]6[C@@H]5C[C@@H](O)[C@]5(C)[C@@H](C7=CC(=O)OC7)CC[C@]65O)C4)O[C@@H]3C)O[C@@H]2C)C[C@H](O)[C@@H]1O [Digoxin]
- Enhancement of IR-mediated cellular cannibalism (IRCCE) [1]: IRCCE; also recorded: efficient cellular cannibalism enhancer

Molecule: C[C@H]1O[C@@H](O[C@H]2[C@@H](O)C[C@H](O[C@H]3[C@@H](O)C[C@H](O[C@H]4CC[C@@]5(C)[C@H](CC[C@@H]6[C@@H]5CC[C@]5(C)[C@@H](C7=CC(=O)OC7)CC[C@]65O)C4)O[C@@H]3C)O[C@@H]2C)C[C@H](O)[C@@H]1O [Digitoxin]
- Enhancement of IR-mediated cellular cannibalism (IRCCE) [1]: IRCCE; also recorded: efficient cellular cannibalism enhancer

Molecule: CN1CCc2c(c3ccccc3n2Cc2ccccc2)C1 [Mebhydroline 1,5-napthalene disulfonate salt]
- Enhancement of IR-mediated cellular cannibalism (IRCCE) [1]: efficient cellular cannibalism enhancer

Molecule: COc1ccc(C)cc1/C=N/[C@@H]1C[C@@H]2C[C@H]([C@H]1C)C2(C)C [VP331]
- Enhancement of IR-mediated cellular cannibalism (IRCCE) [1]: efficient cellular cannibalism enhancer
- Frequency of mice showing a protective response [2, 3]: significant increase in the frequency of mice showing a protective response
- Frequency of mice showing a protective response [2, 4]: Significant increases in the frequency of mice showing a protective response

Molecule: CCOC(=O)n1ccn(C)c1=S [Carbimazole]
- Enhancement of IR-mediated cellular cannibalism (IRCCE) [1]: no effect

Molecule: O=C(N/N=C/c1ncc[nH]1)NC12CC3CC(CC(C3)C1)C2 [VP450]
- Enhancement of IR-mediated cellular cannibalism (IRCCE) [1]: efficient cellular cannibalism enhancer

Molecule: COc1cccc2c1C(=O)c1c(O)c3c(c(O)c1C2=O)C[C@@](O)(C(=O)CO)C[C@@H]3O[C@H]1C[C@H](N)[C@H](O)[C@H](C)O1.Cl [Doxorubicine hydrochloride, Doxorubicin hydrochloride]
- Enhancement of IR-mediated cellular cannibalism (IRCCE) ([1]; hydrochloride): efficient cellular cannibalism enhancer
- Enhancement of IR-mediated cellular cannibalism (IRCCE) ([1]; listed as Doxorubicin hydrochloride, hydrochloride): IRCCE

Molecule: CN1c2ccccc2C(=O)N(c2ccccc2)C1c1ccc(-c2csc(CO)c2)s1 (stereo not drawn) [VP43]
- Enhancement of IR-mediated cellular cannibalism (IRCCE) [1]: efficient cellular cannibalism enhancer
